Assay results taken from PubChem BioAssay (NCI).
Values joined by “and” are separate entries in the source; they are usually repeats but may differ in a detail not shown here. Equal entries are not always repeated.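 The compound was tested at five concentrations on cells cultured in 96-well plates, with a 48-hour exposure period. At the GI50, growth is halved. TGI marks complete inhibition of growth.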

How the values were obtained:
Test in all cases: NCI tumour cell line growth inhibition, 48 h
IGROV1 ovarian = tested on: IGROV1 ovarian
HCT-15 colon = tested on: HCT-15 colon
SNB-19 CNS = tested on: SNB-19 CNS
OVCAR-4 ovarian = tested on: OVCAR-4 ovarian
RPMI-8226 leukemia = tested on: RPMI-8226 leukemia
BT-549 breast = tested on: BT-549 breast
OVCAR-3 ovarian = tested on: OVCAR-3 ovarian
NCI-H23 lung = tested on: NCI-H23 lung
SW-620 colon = tested on: SW-620 colon
SF-295 CNS = tested on: SF-295 CNS

Row | Structure (SMILES) | GI50 (IGROV1 ovarian) | TGI (IGROV1 ovarian) | GI50 (HCT-15 colon) | TGI (HCT-15 colon) [µM] | GI50 (SNB-19 CNS) [µM] | TGI (SNB-19 CNS) | GI50 (OVCAR-4 ovarian) | GI50 (RPMI-8226 leukemia) | GI50 (BT-549 breast) [µM] | TGI (BT-549 breast) [µM] | GI50 (OVCAR-3 ovarian) | TGI (OVCAR-3 ovarian) | GI50 (NCI-H23 lung) [µM] | TGI (NCI-H23 lung) | TGI (SW-620 colon) | GI50 (SF-295 CNS) [µM] | TGI (SF-295 CNS) [µM] | TGI (OVCAR-4 ovarian) [µM] | TGI (RPMI-8226 leukemia) [µM] | GI50 (SW-620 colon) [µM]
1 | CC[C@@]1(O)C(=O)OCc2c1cc1n(c2=O)Cc2cc3cc(Cl)ccc3nc2-1 | 0.0327 µM and 0.162 µM | 1.85 µM and 2.34 µM | 0.0559 µM and 0.106 µM | 10.5 | 0.00345 | 0.866 µM and 3.82 µM | 0.125 µM and 0.249 µM | 0.0132 µM and 0.0334 µM | 0.0562 | 2.44 | 0.0456 µM and 0.137 µM | 0.274 µM and 0.452 µM | 0.00226 | 0.00545 µM and 0.0196 µM | 2.37 µM and 5.23 µM | < 0.001 | 0.0893 |  |  | 
2 | Cc1cc(=O)oc2c(C3=NN(C=O)C(c4ccccc4)C3)c(O)ccc12 (stereo unspecified) |  | > 100 µM |  | > 100 |  | > 91.2 µM |  |  |  | > 100 |  | > 100 µM |  | > 100 µM | > 100 µM |  | > 31.1 | > 100 | > 100 | 
3 | CCCCCC/C=C/C#CCCCCCCCC(=O)O |  | > 100 µM |  | > 100 |  | > 100 µM |  |  |  | > 100 |  | > 100 µM |  | > 100 µM | > 100 µM |  | > 100 | > 100 | > 100 | 
4 | CN1CCN(CCCOc2cccc3nc(Nc4cc(Cl)cc(Cl)c4)ccc23)CC1 | 1.68 µM | 3.59 µM | 1.42 µM | 2.83 | 1.89 | 3.48 µM | 2.55 µM | 2.17 µM | 3.43 | 13.9 | 1.68 µM | 3.18 µM | 1.72 | 3.32 µM | 3.68 µM | 1.72 | 3.32 | 8.14 | 4.93 | 1.97
5 | C[C@H]1CCC/C=C/C2CC(OC(=O)CN(C)C)CC2C(OC(=O)CN(C)C)/C=C/C(=O)O1 (stereo partly specified) | 1.71 µM | 34.4 µM | 0.272 µM | > 32.4 | 2.76 | > 100 µM | 0.349 µM | 0.712 µM | 0.459 | 74.9 | 0.428 µM | 3.2 µM | 0.359 | 1.92 µM | 1.95 µM | 1.11 | 37.2 | 34.2 | > 81.4 | 0.318
6 | C=CC(=O)N[C@@H]1CN(c2nc(Nc3cn(C)nc3OC)c3ncn(C)c3n2)C[C@H]1F | 2.61 µM | > 72.6 µM | 39 µM | > 100 | 27.1 | > 100 µM | 26.7 µM | > 71.7 µM | 28.6 | > 100 | 19 µM | > 88 µM | 27.5 | > 100 µM | > 100 µM | 38.9 | > 100 | > 100 | > 100 | 26.9
7 | Cc1cccc2c(C3=C(c4cn(C)c5ccccc45)C(=O)NC3=O)cn(C)c12 | 25 µM | > 25 µM | 11.5 µM | > 25 | > 25 | > 25 µM | 6.64 µM | > 18.6 µM | 12.7 | > 25 | 9.33 µM | > 25 µM | > 25 | > 25 µM | > 25 µM | > 24 | > 25 | > 23.1 | > 25 | 12.7
8 | O=C(NC1CCN(Cc2ccccc2)CC1)c1cc(-c2cccnc2)nc2ccc(Cl)cc12 | 16.1 µM | 81.8 µM | 4.57 µM | 30.5 | 11.6 | 42.3 µM | 9.01 µM | 6.62 µM | 24.8 | > 100 | 11.3 µM | 28 µM | 18 | > 100 µM | > 100 µM | 10.6 | 26 | 68.5 | > 100 | 11.5
9 | CCn1cnc(C[C@H](NC(=O)[C@H](CCCCNC(=O)Nc2cc(C(F)(F)F)cc(C(F)(F)F)c2)NC(=O)Nc2cc(C(F)(F)F)cc(C(F)(F)F)c2)C(=O)OC)c1 | 5.27 µM | > 10 µM | > 10 µM | > 10 | 5.1 | > 10 µM | 3.51 µM | 3.08 µM | > 10 | > 10 | 3.32 µM | > 10 µM | 5.98 | > 10 µM | > 10 µM | > 10 | > 10 | > 10 | > 10 | 6.86
10 | CC1(C)OB(c2ccc(N(CCOS(C)(=O)=O)CCOS(C)(=O)=O)cc2)OC1(C)C | 4.89 µM | 35.4 µM | 15.6 µM | 41 | 31.3 | > 100 µM | 32.9 µM | 7.75 µM | 17.6 | 41 | 18.9 µM | 45.3 µM | 6.88 | 30.4 µM | > 100 µM | 12.9 | > 55 | > 86.6 | > 72.5 | 17.1
11 | Cc1cc(F)c(C(=O)Nc2cccc(-c3nncn3C(C)C)n2)cc1-n1cnc(C2CC2)c1 | 6.89 µM | 61.7 µM | 15.6 µM | 96.4 | 25.5 | > 100 µM | 13.1 µM | 7.54 µM | 11.7 | 54.8 | 12.5 µM | > 100 µM | 12 | 46.6 µM | > 100 µM | 13.3 | 80.9 | 97 | 35.3 | 20.8
12 | COc1ccc2[nH]c(Cl)c(/C=C3/C(=O)Nc4ccccc43)c2c1 | 0.724 µM | 20.7 µM | 0.611 µM | 3.36 | 0.852 |  | 1.13 µM | 0.213 µM | 0.185 | 0.523 | 0.537 µM | 1.07 µM | 0.219 | 0.688 µM | 7.58 µM | 0.574 | 1.28 | 14.3 | 0.591 | 0.366
13 | Nc1n[n+]([O-])c2cc([N+](=O)[O-])ccc2[n+]1[O-] |  | 13.2 µM |  | 13.6 |  | 31.1 µM |  |  |  | 32 |  | 15.2 µM |  | 35.7 µM | > 100 µM |  | 22.5 | 10.2 | > 100 | 
14 | O=c1cc(-c2ccc(Cl)cc2)[nH]c2ccccc12 | 61.5 µM | > 100 µM | 12.9 µM | > 100 | 95.3 | > 100 µM | > 100 µM | 46.9 µM | 29.4 | > 100 | 31.2 µM | > 100 µM | 63 | > 100 µM | > 100 µM | 41.2 | > 100 | > 100 | > 100 | 27.7
